Assays:
N. tabacum [1] = assay: Stable T-DNA integration: LUC expression test of regenerated plantlets; format: in vivo, Nicotiana tabacum; settings: for Calli regenerated and transplanted, LUC expression test: LUC negative / Calli regenerated and transplanted, LUC expression test: LUC positive: 20 leaves transformed
Method: The number of transgenic plants, having incorporated a marker gene, regenerated from tobacco calli in various transformation experiments were counted. All the regenerated plants were screened using a luciferase camera. Spraying the transgenic plants with luciferine, the substrate for luciferase enzyme, allowed the identification of transgenic plants expressing the luciferase.
After a period of about 3 to 4 weeks, the number of regenerated calli were determined. Shoots that developed were excised from calli and transferred to a root inducing solid MS medium containing 0.5 mg/L of naphtaleneacetic acid (NAA), 100 mg/L ticarcillin, 3 mg/L potassium clavulanate and 25 mg/L hygromycin. After a 1 to 2 week period of root induction, the plantlets were transplanted to soil.
The effects of CeCl3 on the occurrence of stable plant transformation events in N. tabacum plants were evaluated. These experiments identified transformed plants where the DNA of interest had stably integrated into the plant genome.
The newly appeared plantlets regenerated from the calli of Example 3, showing evidence of root formation, were excised from the calli and transferred to soil.
Plantlets were sprayed with luciferine, and the total number of luciferase-positive plantlets was scored. This allowed the calculation of the transformation frequency, as the number of plants expressing LUC gene to the number of transformed leaves, shown in FIG. 4.
The number of stable transformants re-generated from plants grown on CeCl3 supplemented media and control medium, as detailed in Example 3, were compared.

N. tabacum [2] = assay: Calli regeneration under hygromycin selection after Agrobacterium-mediated transformation of leaves; format: in vivo, Nicotiana tabacum; settings: for Calli regenerated and transplanted: total: 20 leaves transformed
Method: Seeds of tobacco cultivar Big Havana were surface-sterilized with a solution containing 1% bleach and 0.05% Tween-80 for about 3 minutes and then rinsed twice with sterile distilled water for about 5 minutes. Surface-sterilized seeds were plated in 100 mm Petri dishes on sterile Whatman® filter paper submersed in 4 ml of liquid MS medium containing varying amounts of CeCl3, LaCl3 and a combination of CeCl3 and LaCl3 and the plants were transferred to a growth chamber for germination. Once germinated, the plants were removed from the growth chamber and grown for a period of one week under conditions of 16-hours light, 22° C. and 8-hours dark, 18° C. The three to five one week old plants were then removed from the 4-ml liquid medium and transferred to single sterile glass 250 ml flasks containing 15 ml of sterile liquid MS media supplemented with varying amounts of CeCl3, LaCl3 and a combination of CeCl3 and LaCl3. Flasks were then installed on shakers at 50-75 rpm. Plants were continuously grown under conditions of 16-hours light, 22° C. and 8-hours dark, 18° C. The growth medium in each flask was replaced weekly with 25 ml of fresh medium. Following a 3-week period, plants were removed from the flasks and 2 to 3 pairs of fully developed fresh leaves about 2-4 cm long were harvested (cut from the plant) for transformation with Agrobacteria.
Experimental groups of tobacco plants were germinated and grown in a liquid medium culture supplemented with varying amounts of CeCl3, LaCl3 and a combination of CeCl3 and LaCl3. Control plants for the transformation experiments were grown in a standard MS-medium that was not supplemented with CeCl3 or LaCl3.
Four weeks post-germination, the tobacco plants were removed from the liquid medium culture. The leaves from the plants were removed, and several parallel incisions were made along the leaves. The leaves were then vacuum infiltrated with an Agrobacterium suspension culture carrying the plasmid with LUC (gene coding for luciferase) and hygromycin (gene coding for the resistance to hygromycin) genes.
The leaves were vacuum-infiltrated twice for about 5 minutes with the Agrobacterium suspension culture using standard procedures known in the art. Following vacuum infiltration, the tobacco leaves were dried for about 5 to 10 minutes on sterile Whatman® filter paper to remove substantially all excess Agrobacterium cells. The leaves were then placed on plates containing MS medium, and each of the plates were placed for in a room for a period of 3 day at a temperature of 22° C. and exposed to a daily regime of 16-hours of light and 8-hours of dark.
Leaves from each of the experimental groups grown on the different media compositions having varying amounts of CeCl3, LaCl3 and a combination of CeCl3 and LaCl3 and the controls were washed with sterile water to remove the […]. To remove traces of growth medium, leaves were blotted on sterile filter paper and then submersed in a Petri dish laid out with Whatman® filter paper containing re-suspended Agrobacterium cells. Each submersed leaf surface was incised using a sharp surgical blade in parallel along the side veins. The distance between the two parallel incisions was about 5-7 mm. The primary leaf vein and leaf margins were left intact. Once cutting was complete, leaves remained submersed for a period of about 10 minutes. Leaves were then removed from the Petri dish and were blotted dry and placed upside-down on plates of MS medium, and were incubated in a dark room at 22° C. for a period of 3 days. Following incubation, leaves were removed from the plates and rinsed with sterile distilled water, blotted dry and transferred onto solid MS medium containing 0.8 mg/L of indole-3-acetic acid (IAA), and 2 mg/L kinetin for calli induction and regeneration, a combination of 100 mg/L ticarcillin and 3 mg/L potassium clavulanate to control Agrobacterium growth, and 25 mg/L hygromycin for selection for transformed cells. […]

[3] = 0.1 μM CeCl3, liquid MS, Table 2 experiment
[4] = 0.1 μM CeCl3, liquid MS, second independent experiment (Table 3)
[5] = 0.5 μM CeCl3, liquid MS, Table 2 experiment
[6] = 1.0 μM CeCl3, liquid MS, second independent experiment (Table 3)

`[Ce+3].[Cl-].[Cl-].[Cl-]` [CeCl3, cerium (III) chloride] was tested, and the “difference in numbers of stable transformants versus control media” value (N. tabacum [1]; 0.1 μM CeCl3, FIG. 4) was 2.0 fold, the “Calli regenerated and transplanted, LUC expression test: LUC negative” value (N. tabacum [1]; [3]) was 13 and the “Calli regenerated and transplanted, LUC expression test: LUC positive” value (N. tabacum [1]; [3]) was 23. The “Calli regenerated and transplanted, LUC expression test: LUC negative” value (N. tabacum [1]; [4]) was 13, the “Calli regenerated and transplanted, LUC expression test: LUC positive” value (N. tabacum [1]; [4]) was 34 and the Integration frequency (N. tabacum [1]; [3]) was 1.15 LUC positive plants/leaf trans. For the same compound, the Integration frequency (N. tabacum [1]; [4]) was 1.7 LUC positive plants/leaf trans, the “Calli regenerated and transplanted, LUC expression test: LUC negative” value (N. tabacum [1]; [5]) was 18 and the “Calli regenerated and transplanted, LUC expression test: LUC positive” value (N. tabacum [1]; [5]) was 38. The Integration frequency (N. tabacum [1]; [5]) was 1.9 LUC positive plants/leaf trans, the “difference in numbers of stable transformants versus control media” value (N. tabacum [1]; 1.0 μM CeCl3, FIG. 4) was 3.4 fold and the “Calli regenerated and transplanted, LUC expression test: LUC negative” value (N. tabacum [1]; [6]) was 18. For the same compound, the “Calli regenerated and transplanted, LUC expression test: LUC positive” value (N. tabacum [1]; [6]) was 57, the Integration frequency (N. tabacum [1]; [6]) was 2.85 LUC positive plants/leaf trans and the “increase in the number of calli regenerated compared to the control medium” value (from here on “increase in the number”) (N. tabacum [2]; 0.1 μM CeCl3, Table 2 experiment) was 1.8 fold. The “Calli regenerated and transplanted: total” value (N. tabacum [2]; [3]) was 35, the “Calli regenerated and transplanted: total” value (N. tabacum [2]; [4]) was 48 and the “increase in the number” value (N. tabacum [2]; 0.1 μM CeCl3, second independent experiment (Table 3, FIG. 4)) was 2.2 fold. For the same compound, the “increase in the number” value (N. tabacum [2]; 0.5 μM CeCl3, Table 2 experiment) was 2.9 fold, the “Calli regenerated and transplanted: total” value (N. tabacum [2]; [5]) was 56 and the “Calli regenerated and transplanted: total” value (N. tabacum [2]; [6]) was 73. For the same compound, the “increase in the number” value (N. tabacum [2]; 1.0 μM CeCl3, second independent experiment (Table 3, FIG. 4)) was 3.3 fold.
